Assay results taken from US20090075902A1, “INHIBITING THE SIGNS OF AGING BY INHIBITING NF-KAPPA B ACTIVATION” (priority 2007, published 2009).

Columns and labels:
[1] = tested on: Ercc1^−/Δ mice; test: Third series: double blinded twin study, 8K-NBD versus negative control 8K-mNBD; type: in vivo, mouse
Description: FIG. 12. Treatment schedule for third series of experiments; treatment with 8K-NBD or negative control 8k-mNBD.
In a third series of experiments, a different treatment regimen was used (FIG. 12) in which treatment with 8K-NBD or a negative control peptide, 8K-mNBD (having a mutated sequence, […] (SEQ ID NO:7)) was initiated earlier than the above regimens at approximately 5 weeks (8K-NBD or 8K-mNBD, 10 mg/kg) administered intraperitoneally three times per week). This was a double blinded twin study designed to eliminate genetic and environmental variables.
FIG. 13 presents a table showing the phenotypic changes associated with aging in mice treated with 8k-NBD or negative control 8k-mNBD. The overall aging score was improved by 30 percent in 8K-NBD versus 8K-mNBD-treated mice, indicating a significant delay in the onset of age-related symptoms corresponding to over a decade in human life.
FIG. 15A-D presents a comparison of levels of hepatocellular senescence, as measured by staining for p16 protein, in young and senescent wild-type mice as well as Ercc1^−/Δ mice treated with either 8K-NBD or negative control 8K-mNBD according to the regimen of FIG. 12 at the age of 18 weeks.

[2] = tested on: NF-κB activation; conditions: (Wen 2006); cited from earlier work
[3] = tested on: mice; conditions: cited from earlier work
[4] = tested on: Ercc^−/Δ mouse; test: Delayed onset of frailty in a mouse treated with Compound A; type: in vivo; conditions: 5 MG/KG of Compound A, n=1; oil control n=3
Description: Delayed onset of frailty in an Ercc^−/Δ mouse treated with 5 MG/KG of Compound A

[5] = tested on: Ercc1^−/Δ mice; test: Pilot study: chronic 8K-NBD treatment, onset and severity of progeroid symptoms; type: in vivo, mouse
Description: FIG. 6. Exposure paradigm for pilot study to determine the impact of 8K-NBD on quality of life in progeroid Ercc1^−/Δ mice. 8K-NBD was dissolved in 5% DMSO in PBS and injected intraperitoneally. A littermate Ercc1^−/Δ mouse was treated with an equal volume of vehicle only (PBS). The study was concluded at 19 wks when the mouse treated with vehicle only became profoundly ataxic and cachectic, requiring euthanization.
Studies were performed to determine if inhibition of NF-κB activation ameliorates accelerated aging in Ercc1^−/Δ mice. An Ercc1^−/Δ mouse was chronically treated with 8K-NBD peptide as described in FIG. 6. The age at onset of numerous progeroid symptoms were recorded (Table II). Ataxia and priapism, both caused by neurodegeneration (Rolig and McKinnon, 2000), were delayed by 3 wks and 1.5 wks respectively in the mouse treated with 8K-NBD.
Motor strength and coordination were measured weekly in the mice by testing their ability to cross a balance beam (FIG. 9A) and to remain suspended from a wire (FIG. 9B).

[6] = tested on: Ercc1^−/Δ mice; test: Second series: 8K-NBD in an older symptomatic mouse, liver and skeletal muscle histopathology; type: in vivo
Description: FIG. 10. Exposure paradigm for pilot study to determine the impact of 8K-NBD on histopathologic changes in progeroid Ercc1^−/Δ mice. 8K-NBD was dissolved in 5% DMSO in PBS and injected i.p.
In a second series of experiments, an older Ercc1^−/Δ mouse, which already had progeroid symptoms, was chronically exposed to 8K-NBD then euthanized at 20 wk of age to determine if 8K-NBD affected histopathologic changes associated with aging (FIG. 10). Liver and skeletal muscle (SKM) were dissected, fixed, sectioned and stained. Tissues were compared to age-matched untreated Ercc1^−/Δ. The liver of Ercc1^−/Δ mice display large polyploid nuclei (FIG. 11A, 10×) characteristic of senescent hepatocytes (Gupta, 2000). […] This is consistent with previous reports that in mouse models of numerous inflammatory myopathies, persistent NF-κB activity is associated with necrotic and regenerative changes (Monici et al., 2003).

[7] = 8K-NBD 10 mg/kg i.p. chronically, versus sibling treated with vehicle only
[8] = 8K-NBD versus vehicle-treated mouse

KKKKKKKKGGTALDASALQTE (SEQ ID NO:7) [8K-mNBD, reference compound]
Degree of osteoporotic changes (micro-CT of vertebra) ([1]; at 17 weeks of age, compared with 8K-NBD-treated sibling and wild-type littermate): appears greatest
Hepatocellular senescence, p16 protein staining pattern ([1]; at the age of 18 weeks): more closely resembles the pattern in senescent wild-type hepatocytes

COc1c(Cl)cc2c([nH]c3cnccc32)c1NC(=O)c1cccnc1C [ML120B, (N-6-chloro-7-methoxy-9H-β-carbolin-8-yl)-2-methylnicotinamide]
IC50 [2]: 60 nM

TALDWSWLQTE; SEQ ID NO:1 [NBD peptide]
Toxicity on systemic administration [3]: not toxic

Cl.O=C1Nc2nc(-c3c(O)cccc3OCC3CC3)cc([C@@H]3CCCNC3)c2CO1 [Compound A]
Ataxia (onset) [4]: 19.3
Dystonia (onset) [4]: 13.7
Kyphosis (onset) [4]: 14.3
Trembling (onset) [4]: 12.7
Wasting (onset) [4]: 19.7

KKKKKKKK-GG-TALDWSWLQTE (SEQ ID NO:2) (KKKKKKKKGGTALDWSWLQTE) [8K-NBD]
Delay of onset of ataxia [5, 7]: 3 wks
Delay of onset of priapism [5, 7]: 1.5 wks
Body weight maintenance ([5]; 8K-NBD versus untreated and vehicle-treated mice): maintained weight longer
Ambulation and general appearance [5, 8]: improved
Severity of dystonia, trembling and kyphosis [5, 8]: significantly reduced
Delay in onset of symptoms (cachexia, loss of muscle mass and vision) ([5]; 8K-NBD versus vehicle-treated sibling): ≥ 3 wk
Motor strength and coordination (balance beam, suspension from a wire) ([5]; tested weekly, versus untreated mice (n=7)): tended to perform better
Onset of cachexia, loss of muscle mass and vision ([5]; within the 19 wk period of the study, vehicle mouse showed them by 16 wks of age): did not arise
Skeletal muscle (SKM) pathology ([6]; at 20 wk of age, untreated Ercc1^−/Δ SKM showed necrosis): devoid of pathologic changes
Hepatocyte cytoplasm to nuclear ratio ([6]; liver at 20 wk of age, versus age-matched untreated Ercc1^−/Δ): much higher
Hepatic architecture ([6]; liver at 20 wk of age, suggestive of liver regeneration): effaced
Improvement of overall aging score ([1]; 8K-NBD versus 8K-mNBD, 10 mg/kg i.p. three times per week from approximately 5 weeks): 30%
Hepatocellular senescence, p16 protein staining pattern ([1]; at the age of 18 weeks): more closely resembles that of a young, healthy mouse
Neurodegeneration, GFAP staining pattern ([1]; at the age of 18 weeks, relative to 8K-mNBD-treated animal): more closely resembles that of the young wild-type mouse
